These results are taken from ChEMBL document CHEMBL3414527, “Engineering potent and selective analogues of GpTx-1, a tarantula venom peptide antagonist of the Na(V)1.7 sodium channel” (J Med Chem, 2015).

Bridge positions count the residues as written; N and C are the ends. Peptide text beside a SMILES is read from it.

For orientation: IC50 means the concentration at which inhibition is half-maximal. Low values mean greater potency, high ones weaker potency.

Data set [1] addresses Sodium channel protein type 5 subunit alpha (Homo sapiens, UniProt Q14524). The experiment in a line: Inhibition of human NaV1.5 at -140 mV holding potential by whole-cell patch clamp assay. (The patch-clamp technique gives a direct electrical read-out from membranes.)
Data set [2] concerns the target Sodium channel protein type 4 subunit alpha (Homo sapiens, UniProt P35499). The experiment in a line: Inhibition of human NaV1.4 at -140 mV holding potential by whole-cell patch clamp assay.
Data set [3] has as its target T1, Sodium channel protein type 9 subunit alpha (Homo sapiens, UniProt Q15858). The experiment in a line: Inhibition of human NaV1.7 at -140 mV holding potential by whole-cell patch clamp assay.
In data set [4] the target is Sodium channel protein type 9 subunit alpha (Mus musculus, UniProt Q62205). Nature of the data set: Inhibition of NaV1.7 in C57BL/6 mouse DRG neurons at -140 mV holding potential by whole-cell patch clamp assay.
In data set [5] the target is T1, Sodium channel protein type 9 subunit alpha. The experiment in a line: Inhibition of human NaV1.7 by patchXpress 700A electrophysiology method.
The nature of data set [6]: Stability in mouse plasma assessed as intact compound remaining at 37 degC after 24 hrs by LC-MS method. Type of data set: ADME, cell-free. The following applies: read-out: Stability.
A short description of data set [7]: Stability in human plasma assessed as intact compound remaining at 37 degC after 24 hrs by LC-MS method. Type of data set: ADME, cell-free. As to conditions: read-out: Stability.

Sodium channel protein type 5 subunit alpha, sequence (Q14524 whole entry): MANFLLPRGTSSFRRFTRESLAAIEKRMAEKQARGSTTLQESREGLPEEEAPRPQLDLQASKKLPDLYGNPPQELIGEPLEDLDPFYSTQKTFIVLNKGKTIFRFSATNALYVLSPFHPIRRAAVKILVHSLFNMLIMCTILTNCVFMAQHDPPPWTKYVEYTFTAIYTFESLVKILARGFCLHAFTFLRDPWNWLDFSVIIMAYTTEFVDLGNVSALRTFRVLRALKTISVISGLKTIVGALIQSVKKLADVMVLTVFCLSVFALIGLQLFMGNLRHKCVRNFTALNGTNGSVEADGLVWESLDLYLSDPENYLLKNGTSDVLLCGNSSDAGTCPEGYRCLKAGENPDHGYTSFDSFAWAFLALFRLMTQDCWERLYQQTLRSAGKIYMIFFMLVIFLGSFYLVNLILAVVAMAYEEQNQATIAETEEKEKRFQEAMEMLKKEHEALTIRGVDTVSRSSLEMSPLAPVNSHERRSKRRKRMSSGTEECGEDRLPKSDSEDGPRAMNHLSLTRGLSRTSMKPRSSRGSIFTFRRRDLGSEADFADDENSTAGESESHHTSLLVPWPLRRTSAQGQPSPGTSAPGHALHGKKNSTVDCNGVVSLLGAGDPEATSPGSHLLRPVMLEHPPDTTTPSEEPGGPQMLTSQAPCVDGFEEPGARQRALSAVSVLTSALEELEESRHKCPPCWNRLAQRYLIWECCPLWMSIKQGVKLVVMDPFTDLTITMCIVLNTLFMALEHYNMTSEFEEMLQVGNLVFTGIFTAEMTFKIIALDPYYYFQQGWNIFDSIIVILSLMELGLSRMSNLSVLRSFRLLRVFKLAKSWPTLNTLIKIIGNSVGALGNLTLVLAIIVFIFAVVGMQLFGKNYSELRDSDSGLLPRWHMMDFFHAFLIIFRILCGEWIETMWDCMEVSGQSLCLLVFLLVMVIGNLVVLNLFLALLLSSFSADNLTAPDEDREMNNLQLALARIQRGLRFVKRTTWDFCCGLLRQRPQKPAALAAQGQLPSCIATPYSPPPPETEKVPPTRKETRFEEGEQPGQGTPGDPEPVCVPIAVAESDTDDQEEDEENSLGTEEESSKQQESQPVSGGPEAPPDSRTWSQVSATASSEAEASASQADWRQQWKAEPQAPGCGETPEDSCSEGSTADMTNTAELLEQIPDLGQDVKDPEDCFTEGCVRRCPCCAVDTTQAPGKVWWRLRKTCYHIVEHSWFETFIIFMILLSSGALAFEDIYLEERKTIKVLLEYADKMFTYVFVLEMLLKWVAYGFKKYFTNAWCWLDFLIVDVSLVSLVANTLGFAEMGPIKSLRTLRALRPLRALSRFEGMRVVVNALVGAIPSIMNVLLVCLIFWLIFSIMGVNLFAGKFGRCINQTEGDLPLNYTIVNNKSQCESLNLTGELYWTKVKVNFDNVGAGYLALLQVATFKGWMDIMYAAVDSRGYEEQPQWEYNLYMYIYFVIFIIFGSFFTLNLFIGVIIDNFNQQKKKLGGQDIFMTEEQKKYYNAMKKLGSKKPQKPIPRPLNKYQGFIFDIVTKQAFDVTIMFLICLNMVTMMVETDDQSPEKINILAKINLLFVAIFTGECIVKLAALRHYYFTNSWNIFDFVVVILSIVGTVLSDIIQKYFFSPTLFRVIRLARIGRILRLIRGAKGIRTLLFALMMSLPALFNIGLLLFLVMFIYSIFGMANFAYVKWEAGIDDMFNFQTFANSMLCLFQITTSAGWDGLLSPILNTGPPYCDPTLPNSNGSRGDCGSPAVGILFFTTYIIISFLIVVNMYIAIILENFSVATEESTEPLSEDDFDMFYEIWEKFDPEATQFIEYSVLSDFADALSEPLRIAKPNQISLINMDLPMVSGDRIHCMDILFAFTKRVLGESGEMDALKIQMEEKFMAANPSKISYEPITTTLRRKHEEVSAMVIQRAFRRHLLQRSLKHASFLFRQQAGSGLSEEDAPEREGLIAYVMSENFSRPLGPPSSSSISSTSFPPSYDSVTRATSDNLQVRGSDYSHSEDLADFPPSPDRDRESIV
Sodium channel protein type 4 subunit alpha, sequence (P35499 whole entry): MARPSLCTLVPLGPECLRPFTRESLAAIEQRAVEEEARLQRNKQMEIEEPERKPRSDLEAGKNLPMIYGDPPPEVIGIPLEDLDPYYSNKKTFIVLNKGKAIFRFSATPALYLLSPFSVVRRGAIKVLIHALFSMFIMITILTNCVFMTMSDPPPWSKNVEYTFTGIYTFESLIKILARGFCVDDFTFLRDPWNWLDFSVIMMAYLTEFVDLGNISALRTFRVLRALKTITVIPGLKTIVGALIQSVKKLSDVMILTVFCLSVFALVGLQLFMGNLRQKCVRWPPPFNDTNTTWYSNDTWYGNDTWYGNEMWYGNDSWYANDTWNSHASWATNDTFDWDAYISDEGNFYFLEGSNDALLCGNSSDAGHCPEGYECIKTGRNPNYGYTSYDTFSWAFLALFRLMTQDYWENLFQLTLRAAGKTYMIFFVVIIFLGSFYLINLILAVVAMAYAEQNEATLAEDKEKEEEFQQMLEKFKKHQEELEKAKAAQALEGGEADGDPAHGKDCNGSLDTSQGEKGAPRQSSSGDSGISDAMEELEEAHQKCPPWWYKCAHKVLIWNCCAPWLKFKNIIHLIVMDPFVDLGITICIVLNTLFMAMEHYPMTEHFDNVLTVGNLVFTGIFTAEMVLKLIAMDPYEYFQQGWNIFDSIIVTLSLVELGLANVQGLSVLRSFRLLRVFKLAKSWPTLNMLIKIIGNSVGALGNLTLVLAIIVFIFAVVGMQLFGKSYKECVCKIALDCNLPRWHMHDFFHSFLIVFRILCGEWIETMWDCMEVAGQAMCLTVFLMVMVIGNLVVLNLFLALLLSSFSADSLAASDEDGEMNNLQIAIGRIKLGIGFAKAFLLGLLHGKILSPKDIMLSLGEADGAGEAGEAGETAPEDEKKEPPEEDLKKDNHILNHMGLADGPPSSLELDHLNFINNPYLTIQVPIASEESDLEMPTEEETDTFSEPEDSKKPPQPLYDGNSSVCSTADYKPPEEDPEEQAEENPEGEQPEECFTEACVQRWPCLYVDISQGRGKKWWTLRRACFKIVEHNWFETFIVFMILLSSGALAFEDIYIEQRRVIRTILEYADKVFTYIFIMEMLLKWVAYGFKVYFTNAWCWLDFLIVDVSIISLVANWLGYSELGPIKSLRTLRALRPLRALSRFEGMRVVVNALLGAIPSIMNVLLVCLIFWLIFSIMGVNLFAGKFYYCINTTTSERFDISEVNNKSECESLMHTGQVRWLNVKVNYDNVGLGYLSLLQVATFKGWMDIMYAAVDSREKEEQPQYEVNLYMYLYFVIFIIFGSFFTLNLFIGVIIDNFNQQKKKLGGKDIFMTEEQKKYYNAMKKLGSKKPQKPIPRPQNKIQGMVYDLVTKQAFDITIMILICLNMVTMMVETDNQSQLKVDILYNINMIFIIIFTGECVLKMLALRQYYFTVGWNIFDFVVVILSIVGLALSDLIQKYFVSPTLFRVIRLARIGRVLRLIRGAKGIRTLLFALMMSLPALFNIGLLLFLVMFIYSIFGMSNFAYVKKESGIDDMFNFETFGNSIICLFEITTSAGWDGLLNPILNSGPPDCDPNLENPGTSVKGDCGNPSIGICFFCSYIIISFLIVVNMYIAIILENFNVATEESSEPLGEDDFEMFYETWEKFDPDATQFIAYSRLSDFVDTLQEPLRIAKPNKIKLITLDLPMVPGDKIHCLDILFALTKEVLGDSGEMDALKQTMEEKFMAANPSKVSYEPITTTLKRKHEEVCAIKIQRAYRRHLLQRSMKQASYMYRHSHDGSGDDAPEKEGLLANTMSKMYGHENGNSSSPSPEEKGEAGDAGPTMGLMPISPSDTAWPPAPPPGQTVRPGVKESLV

Consider `CSCC[C@@H]1NC(=O)CNC(=O)[C@H](CCC(=O)O)NC(=O)[C@@H]2CSSC[C@H](NC(=O)[C@@H](N)Cc3ccc(O)cc3)C(=O)N[C@@H](CCC(N)=O)C(=O)N[C@@H](CCCCN)C(=O)N[C@@H](Cc3c[nH]c4ccccc34)C(=O)N[C@@H](CCSC)C(=O)N[C@@H](Cc3c[nH]c4ccccc34)C(=O)N[C@@H]([C@@H](C)O)C(=O)N[C@H]3CSSC[C@H](NC(=O)[C@H](C(C)C)NC1=O)C(=O)N[C@@H](CCCNC(=N)N)C(=O)N[C@@H](CC(C)C)C(=O)N[C@@H](Cc1c[nH]c4ccccc14)C(=O)N[C@H](C(=O)N[C@@H](CCCCN)C(=O)N[C@@H](CCCCN)C(=O)N[C@@H](CCCCN)C(=O)N[C@@H](CC(C)C)C(=O)N[C@@H](Cc1c[nH]c4ccccc14)C(=O)O)CSSC[C@H](NC(=O)[C@H](CCCCN)NC(=O)[C@H](CCCNC(=N)N)NC(=O)[C@H](CCC(=O)O)NC(=O)[C@H](CO)NC(=O)[C@H](CC(=O)O)NC3=O)C(=O)N2`, for which the values for the IC50 in data set [1] and in data set [2] were 90 nM and 30 nM, respectively.

With `CC[C@H](C)[C@H](NC(=O)[C@H](CCC(N)=O)NC(=O)[C@H](Cc1ccc(O)cc1)NC(=O)[C@H](CCCCN)NC(=O)[C@@H]1CSSC[C@@H]2NC(=O)[C@H](CCC(N)=O)NC(=O)[C@H](CC(=O)O)NC(=O)[C@H](CC(N)=O)NC(=O)[C@H](CO)NC(=O)[C@@H]3CCCN3C(=O)[C@H](CC(N)=O)NC(=O)[C@@H]3CSSC[C@H](NC(=O)[C@H](C(C)C)NC(=O)[C@H](CC(C)C)NC(=O)[C@H](CCCCN)NC(=O)[C@H](CO)NC(=O)[C@H](CO)NC(=O)[C@H](CCCCN)NC(=O)[C@H](CSSC[C@H](NC(=O)[C@@H](N)CCC(=O)O)C(=O)N[C@@H](CC(C)C)C(=O)N[C@@H](CCC(=O)O)C(=O)N[C@@H]([C@@H](C)CC)C(=O)N[C@@H](Cc4ccccc4)C(=O)N[C@@H](CCCCN)C(=O)N[C@@H](C)C(=O)N3)NC2=O)C(=O)N[C@@H](CO)C(=O)N[C@@H](CCCNC(=N)N)C(=O)N[C@@H](CCCCN)C(=O)N[C@@H]([C@@H](C)O)C(=O)N[C@@H](CCCNC(=N)N)C(=O)N[C@@H](Cc2c[nH]c3ccccc23)C(=O)N1)C(=O)O`, the IC50 amounted to 25000 nM in data set [1], 3900 nM in data set [2] and 33 nM in data set [3].

Take `N=C(N)NCCC[C@@H]1NC(=O)[C@H](CO)NC(=O)[C@H](Cc2c[nH]cn2)NC(=O)[C@H](CC(=O)O)NC(=O)[C@H](CCCNC(=N)N)NC(=O)[C@H]2CSSC[C@@H]3NC(=O)[C@@H](N)CSSC[C@H](NC1=O)C(=O)N[C@H](C(=O)O)CSSC[C@H](NC(=O)[C@H](CC(N)=O)NC3=O)C(=O)N[C@@H](CO)C(=O)N[C@@H](CO)C(=O)N[C@@H](CCCCN)C(=O)N[C@@H](Cc1c[nH]c3ccccc13)C(=O)N2`: the figures for the IC50 in data set [1], in data set [2] and in data set [3] were more than 25000 nM, 20 nM and 460 nM, respectively.

In the case of `CC[C@H](C)[C@@H]1NC(=O)[C@@H]2CSSC[C@@H]3NC(=O)[C@H](C(C)C)NC(=O)[C@H](CC(C)C)NC(=O)[C@H](CC(N)=O)NC(=O)[C@@H]4CCCN4C(=O)[C@H](CCCNC(=N)N)NC(=O)[C@H](CSSC[C@H](NC(=O)[C@@H](N)CC(=O)O)C(=O)N[C@@H](CC(C)C)C(=O)NCC(=O)N[C@@H](C)C(=O)N[C@@H](CCSC)C(=O)N[C@@H](CCCNC(=N)N)C(=O)N[C@@H](CCCCN)C(=O)N2)NC(=O)[C@H](CSSC[C@@H](C(=O)N[C@@H](CCCCN)C(=O)N[C@@H](Cc2ccc(O)cc2)C(=O)N[C@H](C(=O)N[C@@H](Cc2ccccc2)C(N)=O)C(C)C)NC(=O)[C@H](Cc2c[nH]c4ccccc24)NC(=O)[C@H](CCCCN)NC(=O)[C@H](Cc2cnc[nH]2)NC(=O)[C@H]([C@@H](C)O)NC(=O)[C@H](CCCNC(=N)N)NC(=O)[C@H](CO)NC3=O)NC(=O)[C@H](CCCCN)NC(=O)[C@H](CC(=O)O)NC(=O)[C@H](CC(N)=O)NC(=O)[C@H](CC(=O)O)NC(=O)[C@@H]2CCCN2C1=O` (H-DCLGAMRKCIPDNDKCCRPNLVCSRTHKWCKYVF-NH2; disulfide 2-17, 9-23, 16-30), the IC50 in data set [1] came to 27000 nM; in data set [4] it was 22.6 nM; in data set [5] it was 27 nM; in data set [3], 630 nM. The remaining at 24 h in data set [6] and in data set [7] was 99% each time.

Turning to `CC[C@H](C)[C@@H]1NC(=O)CNC(=O)[C@H](CC(C)C)NC(=O)[C@@H](NC(=O)[C@@H](N)CC(=O)O)CSSC[C@@H]2NC(=O)[C@@H]3CSSC[C@@H](C(=O)N[C@@H](CCCCN)C(=O)N[C@@H](Cc4ccc(O)cc4)C(=O)N[C@H](C(=O)N[C@@H](Cc4ccccc4)C(N)=O)C(C)C)NC(=O)[C@H](Cc4c[nH]c5ccccc45)NC(=O)[C@H](CCCCN)NC(=O)[C@H](Cc4cnc[nH]4)NC(=O)[C@H]([C@@H](C)O)NC(=O)[C@H](CCCNC(=N)N)NC(=O)[C@H](CO)NC(=O)[C@H](CSSC[C@H](NC(=O)[C@H](CCCCN)NC(=O)[C@H](CCCNC(=N)N)NC(=O)[C@H](CCSC)NC1=O)C(=O)N[C@@H]([C@@H](C)CC)C(=O)N1CCC[C@H]1C(=O)N[C@@H](CC(=O)O)C(=O)N[C@@H](CC(N)=O)C(=O)N[C@@H](CC(=O)O)C(=O)N[C@@H](CCCCN)C(=O)N3)NC(=O)[C@H](C(C)C)NC(=O)[C@H](CC(C)C)NC(=O)[C@H](CC(N)=O)NC(=O)[C@@H]1CCCN1C(=O)[C@H](CCCNC(=N)N)NC2=O` (H-DCLGIMRKCIPDNDKCCRPNLVCSRTHKWCKYVF-NH2; disulfide 2-17, 9-23, 16-30), the figures for the IC50 in data set [1] and in data set [3] were more than 10000 nM and 9 nM, respectively.

For the compound `CC[C@H](C)[C@@H]1NC(=O)[C@@H]2CSSC[C@@H]3NC(=O)[C@H](C(C)C)NC(=O)[C@H](CC(C)C)NC(=O)[C@H](CC(N)=O)NC(=O)[C@@H]4CCCN4C(=O)[C@H](CCCNC(=N)N)NC(=O)[C@H](CSSC[C@H](NC(=O)[C@@H](N)CC(=O)O)C(=O)N[C@@H](CC(C)C)C(=O)NCC(=O)N[C@@H](CC(C)C)C(=O)N[C@@H](CCSC)C(=O)N[C@@H](CCCNC(=N)N)C(=O)N[C@@H](CCCCN)C(=O)N2)NC(=O)[C@H](CSSC[C@@H](C(=O)N[C@@H](CCCCN)C(=O)N[C@@H](Cc2ccc(O)cc2)C(=O)N[C@H](C(=O)N[C@@H](Cc2ccccc2)C(N)=O)C(C)C)NC(=O)[C@H](Cc2c[nH]c4ccccc24)NC(=O)[C@H](CCCCN)NC(=O)[C@H](Cc2cnc[nH]2)NC(=O)[C@H]([C@@H](C)O)NC(=O)[C@H](CCCNC(=N)N)NC(=O)[C@H](CO)NC3=O)NC(=O)[C@H](CCCCN)NC(=O)[C@H](CC(=O)O)NC(=O)[C@H](CC(N)=O)NC(=O)[C@H](CC(=O)O)NC(=O)[C@@H]2CCCN2C1=O` (H-DCLGLMRKCIPDNDKCCRPNLVCSRTHKWCKYVF-NH2; disulfide 2-17, 9-23, 16-30), the IC50 in data set [1] is more than 10000 nM; in data set [3], 5 nM.

In the case of `CC[C@H](C)[C@@H]1NC(=O)[C@@H]2CSSC[C@@H]3NC(=O)[C@H](C(C)C)NC(=O)[C@H](CC(C)C)NC(=O)[C@H](CC(N)=O)NC(=O)[C@@H]4CCCN4C(=O)[C@H](CCCNC(=N)N)NC(=O)[C@H](CSSC[C@H](NC(=O)[C@@H](N)CC(=O)O)C(=O)N[C@@H](CC(C)C)C(=O)NCC(=O)N[C@@H](C(C)C)C(=O)N[C@@H](CCSC)C(=O)N[C@@H](CCCNC(=N)N)C(=O)N[C@@H](CCCCN)C(=O)N2)NC(=O)[C@H](CSSC[C@@H](C(=O)N[C@@H](CCCCN)C(=O)N[C@@H](Cc2ccc(O)cc2)C(=O)N[C@H](C(=O)N[C@@H](Cc2ccccc2)C(N)=O)C(C)C)NC(=O)[C@H](Cc2c[nH]c4ccccc24)NC(=O)[C@H](CCCCN)NC(=O)[C@H](Cc2cnc[nH]2)NC(=O)[C@H]([C@@H](C)O)NC(=O)[C@H](CCCNC(=N)N)NC(=O)[C@H](CO)NC3=O)NC(=O)[C@H](CCCCN)NC(=O)[C@H](CC(=O)O)NC(=O)[C@H](CC(N)=O)NC(=O)[C@H](CC(=O)O)NC(=O)[C@@H]2CCCN2C1=O` (H-DCLGVMRKCIPDNDKCCRPNLVCSRTHKWCKYVF-NH2; disulfide 2-17, 9-23, 16-30), the results for the IC50 in data set [1] and in data set [3] were more than 10000 nM and 19 nM, respectively.
